Common to all, as to experiment: NCI-60 cell line screen, 48 h
Assay [1] relates to CCRF-CEM leukemia.
Assay [2] relates to OVCAR-4 ovarian.
Assay [3] has as its system A498 renal.
For assay [4], the system named is SW-620 colon.
The subject of assay [5] is SK-MEL-2 melanoma.
Assay [6] deals with NCI-H460 lung.
In assay [7] the test system is MALME-3M melanoma.
The subject of assay [8] is UACC-257 melanoma.
Assay [9] relates to M14 melanoma.
For assay [10], the system named is EKVX NSCLC.

Each structure is given as a SMILES string.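 Exposure lasted 48 hours, with cells grown in 96-well plates and compounds tested at five concentrations. At the GI50, growth is halved. At the TGI there is no net growth.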 Where only a bound is given, the exact number is not on record here.

For `CC1(C)CC[C@]2(C(=O)NCCNCCN)CC[C@]3(C)C(=CC[C@@H]4[C@@]5(C)CCC(=O)C(C)(C)[C@@H]5CC[C@]43C)[C@@H]2C1`, the GI50 is 2510 nM in [1]; 1890 nM in [2]; 8010 nM in [3]; 1800 nM in [4]; 1940 nM in assay [5]; 1860 nM in assay [6]. Further, the GI50 in assay [7] was 1830 nM; in [8], 1860 nM; in assay [9] it was 1870 nM; in assay [10], 1740 nM. In addition, the TGI was 8640 nM in assay [1]; 3660 nM in assay [2]; 23600 nM in assay [3]; 3560 nM in assay [4]; 4050 nM in [5]; 3510 nM in assay [6]. Further, the TGI in assay [7] was found to be 3430 nM; in [8] it was 3850 nM; in assay [9], 3500 nM; in assay [10], 3670 nM.

`CCCC[C@H](CCc1ccccc1)N(C(=O)OC)N1CCC[C@H]1COC`: the TGI was found to be 31300 nM in assay [1]; 39900 nM in assay [2]; 34600 nM in [3]; 29800 nM in [4]; 34100 nM in [5]; 31600 nM in assay [6]. Besides, the TGI in assay [7] was 32100 nM; in assay [8], 36200 nM; in assay [9] it was 82600 nM; in assay [10] it was 35200 nM.

For the molecule `CSc1ccc(Cc2cc(C(C)(C)C)cc(C(C)(C)C)c2O)cc1`, the TGI in [1] is 40000 nM; in [2], 28900 nM; in assay [3], 29300 nM; in [4] it was 29700 nM; in [5] it was 16300 nM; in assay [6], 27200 nM. In addition, the TGI in [7] turned out to be 28700 nM; in [8], 28200 nM; in [9], 28600 nM; in assay [10], 32100 nM.

On to `O=c1oc2ccc(F)cc2c(=O)n1-c1ccc(I)cc1F`, for which the GI50 was 1830 nM in [1]; 298 nM in assay [2]; 191 nM in assay [3]; 584 nM in assay [4]; 344 nM in [5]; 404 nM in [6]. The GI50 in assay [7] is 305 nM; in assay [8] it was 432 nM; in [9], 490 nM; in [10] it was 831 nM. Also, the TGI in assay [1] turned out to be 52000 nM; in [3], 646 nM; in assay [4] it was 13300 nM; in assay [5], 1900 nM; in assay [6], 9850 nM; in assay [7] it was 1170 nM. Further, the TGI in assay [8] came out at 4790 nM; in [9] it was 4270 nM; in assay [10], 7270 nM.

Turning to `Oc1ccc(Br)cc1C=NC1CCCCC1`, the TGI in [1] is > 100000 nM; in assay [2] it was > 100000 nM; in [3], > 100000 nM; in assay [4] it was > 100000 nM; in [5] it was 74200 nM; in assay [6], > 100000 nM. Also, the TGI in assay [7], in assay [8], in assay [9] and in assay [10] was > 100000 nM in each case.

As for `CCCCCCCC(=O)Nc1nc2[nH]c(CN3CCN(Cc4cccc(I)c4)CC3)c(CN3CCN(Cc4cccc(I)c4)CC3)c2c(=O)[nH]1`, the GI50 in assay [1] is 1250 nM; in assay [2], 841 nM; in [3], 800 nM; in [4] it was 848 nM; in assay [5], 970 nM; in assay [6], 925 nM. For the same molecule, the GI50 is 866 nM in [7], 1140 nM in assay [8], 882 nM in assay [9] and 835 nM in [10]. In addition, the TGI amounted to 3220 nM in assay [1]; 1620 nM in assay [2]; 1620 nM in [3]; 1630 nM in [4]; 2050 nM in assay [5]; 1760 nM in assay [6]. Also, the TGI in [7] is 1700 nM; in assay [8], 2440 nM; in assay [9], 1770 nM; in [10], 1670 nM.

As for `COC(=O)[C@@H](C)C[C@H](Cc1ccc(F)cc1)NC(=O)c1csc([C@@H](C[C@H](C(C)C)N(C)C(=O)[C@@H](NC(=O)[C@H]2CCCCN2C)C2CC2)OC(C)=O)n1`, the GI50 is 153 nM in [1]; 2370 nM in [2]; 598 nM in assay [3]; 129 nM in assay [4]; 169 nM in [5]; 255 nM in [6]. Further, the GI50 in assay [7] was 569 nM; in assay [8], > 15500 nM; in assay [9], 157 nM; in assay [10] it was 880 nM. In addition, the TGI is > 25000 nM in assay [1]; > 25000 nM in assay [2]; 6870 nM in assay [3]; > 25000 nM in [4]; > 25000 nM in [5]; > 25000 nM in [6]. The TGI was > 25000 nM in assay [7], > 25000 nM in assay [8], > 5990 nM in assay [9] and > 25000 nM in assay [10].

For the origin of these results see PubChem BioAssay (NCI).
